What was measured:
[1] = In vivo safety / IV maximum tolerated dose
[2] = target: T1, Aldurazyme (laronidase) IDUA activity in plasma (Homo sapiens, UniProt P35475); assay: IDUA assay in plasma after i.v. Aldurazyme with or without compound; assay type: in vivo, C57BL/6 male mice; details: mice, compound 5, 10, 20 mg/kg i.v. + Aldurazyme 1.2 mg/kg i.v.
T1 construct: purchased Aldurazyme; host or cells: administered i.v. to C57BL/6 male mice
T1 sequence (P35475 26-653 limits assumed): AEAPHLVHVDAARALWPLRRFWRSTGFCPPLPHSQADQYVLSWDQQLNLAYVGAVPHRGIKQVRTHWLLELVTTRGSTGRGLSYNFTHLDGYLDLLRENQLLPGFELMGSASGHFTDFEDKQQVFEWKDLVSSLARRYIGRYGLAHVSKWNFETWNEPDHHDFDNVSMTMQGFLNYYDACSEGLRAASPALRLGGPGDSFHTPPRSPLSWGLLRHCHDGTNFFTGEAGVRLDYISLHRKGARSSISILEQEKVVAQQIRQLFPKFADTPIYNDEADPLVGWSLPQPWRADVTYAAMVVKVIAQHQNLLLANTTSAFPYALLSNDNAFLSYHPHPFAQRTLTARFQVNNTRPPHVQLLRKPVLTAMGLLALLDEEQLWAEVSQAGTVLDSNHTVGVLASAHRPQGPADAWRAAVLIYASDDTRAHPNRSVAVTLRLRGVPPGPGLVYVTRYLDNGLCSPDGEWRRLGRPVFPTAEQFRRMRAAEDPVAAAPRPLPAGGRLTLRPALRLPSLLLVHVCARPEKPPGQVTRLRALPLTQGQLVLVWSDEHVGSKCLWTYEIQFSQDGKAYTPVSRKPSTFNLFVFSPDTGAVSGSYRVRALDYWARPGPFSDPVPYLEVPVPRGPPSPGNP
Method: Evaluation of IDUA activity in mouse bone joint cartilage samples obtained from BIO-PCY-19-025 study, where C57BL/6 male mice were administered with 1.2 mg/kg Aldurazyme (i.v. bolus administration) in the presence and absence of Compound A.
Groups Details: • G1: Vehicle 2 +Aldurazyme (1.2 mg/kg,i.v.,) QD×1(n=6) [vehicle 2:NMP (5%) + Solutol HS-15 (5%) + Normal saline (45%) + PEG-400 (45%)]; • G2: Compound A (5 mg/kg, i.v.) + Aldurazyme (1.2 mg/kg, i.v.) QD x 1 (n=6); • G3: Compound A (10 mg/kg, i.v.) + Aldurazyme (1.2 mg/kg, i.v.) QD x 1 (n=6); • G4: Compound A (20 mg/kg, i.v.) + Aldurazyme (1.2 mg/kg, i.v.) QD x 1 (n=6); and • G5: Naïve Control (n=6).
Plasma samples from mice were collected at indicated time points. Plasma samples were diluted in formate buffer and total protein was estimated using Bradford reagent. 25 µl of tissue homogenate and plasma samples were added to 25 µl of 0.18 mM of 4 MUI substrate and incubated at 37° C. for 30 min. Reaction was terminated using 200 µl of stop solution (0.3 M Glycine and 0.2 M sodium carbonate, pH 10.4). Plate was read at excitation 355 nm and emission 460 nm. […]
IDUA activity was assessed from 4-MU standard curve. […] Final IDUA enzyme activity was expressed as nmols/mg of protein/hr. Data was analyzed using GraphPad prism software with one way ANOVA followed by Dunnett’s comparison test. […]

[3] = target: T2, Recombinant human α-L-iduronidase protein (Homo sapiens, UniProt P35475); assay: Denaturation prevention assay in neutral pH buffer; assay type: biochemical; details: 30 µM compound, pH 7, 37° C.
T2 construct: Ala26-Pro653 with a C-terminal 10_His tag; 10xHis (C); host or cells: HEK293f (stated in b1366 for the UAB protein)
T2 sequence (P35475 26-653): T1 sequence (P35475 26-653 limits assumed)
Method: The capacity of Compounds of the Disclosure to stabilize α-L-iduronidase in neutral pH buffer was assessed using the denaturation prevention assay.
Briefly, recombinant human α-L-iduronidase protein (obtained in the Institute of Biotechnology and Biomedicine in the UAB, Bellaterra, Spain) was combined at a final concentration of 1 µM with 5X of SYPRO Orange and 30 µM of the corresponding compound in a final reaction volume of 25 µL in 100 mM Hepes 20 mM MgCl2 pH 7 buffer. Reactions were incubated at 37° C. and SYPRO Orange fluorescence intensity was monitored at the indicated time points using Glomax® Discover Microplate Reader from Promega (Madison, WI, USA).
The compound referred to as Compound A throughout this specification is the compound of Example 8 described above. […] (T=37° C.).

[4] = test system: Patient-derived fibroblasts; assay: Enzyme enhancement activity in combination with rhIDUA in patient-derived fibroblasts; assay type: cell-based, human
Method: Patient-derived fibroblasts were seeded at 4×10^4 cells per well in 12-well cell culture plates in Dulbecco’s Modified Eagle’s Media (DMEM) supplemented with 10% of fetal bovine serum (FBS), 1% penicillin/streptomycin (P/S) (Thermo Fisher Scientific, Waltham, MA, USA) and incubated at 37° C., 5% CO2 overnight for cell attachment. Subsequently, cells were incubated in the absence or presence of the compounds and/or 1.25 nM recombinant human α-L-iduronidase protein (obtained in the Institute of Biotechnology and Biomedicine in the UAB) for 4 days. After incubation, cells were washed with phosphate-buffered saline (“PBS”) and detached using Trypsin-EDTA solution (Sigma Aldrich, St. Louis, MO, USA) to prepare cell pellets. The pellets were stored at -80° C. until activity assays were performed. α-L-iduronidase activity in cell lysates was measured by using 4-methylumbelliferyl alpha-L-iduronide substrate (Glycosynth, Warrington, UK). Briefly, lysates were resuspended in 25 µL of 0.9% NaCl containing 0.01% triton X-100 lysis buffer to promote membrane disruption. The cell suspension was sonicated and centrifuged to remove insoluble materials. Then, lysates were mixed with 25 µL of 200 µM 4-MU- alpha-L-iduronide substrate in 0.4 M sodium formate pH 3.5 0.2% triton X-100 buffer for 60 min at 37° C. The reaction was terminated by adding 200 µL of 0.5 M Glycine/0.3M NaOH buffer pH=10. The liberated 4-MU was measured on a Glomax® Discover Microplate Reader from Promega with excitation at 340 nm and emission at 460 nm. Protein quantification was determined using Pierce BCA Protein Assay Kit (Thermo Fisher Scientific, Waltham, MA, USA). Measurements were interpolated in a 4-MU standard curve and normalized by protein quantity.
Compound A increases uptake of rhIDUA protein and its enzymatic activity under a wide range of conditions (rhIDUA concentration and cell-types). Benefits are particularly evident at longer incubation times (4 days).

## CCN(CC(=O)Nc1c(Cl)cccc1Cl)Cc1nc2ccsc2c(=O)[nH]1 [Compound A]
[1]; i.v., all doses tested
  safety at tested doses: safe at all doses tested
[1]; mouse, in vivo, iv
  MTD: 45 mg/kg
[2]
  plasma levels / PK profile of Laronidase: increasing its plasma levels in a dose-dependent manner
[3]
  prevention of pH-induced IDUA denaturation: slows down pH-induced denaturation
[4]; 96h
  activity across a panel of patient-derived fibroblasts: active across a panel of patient-derived fibroblasts
  amount of α-L-iduronidase in fibroblasts: increases the amount of α-L-iduronidase in fibroblasts
[4]; Homo sapiens, Fibroblast, fibroblasts, 96h, co-administration with rhIDUA, read-out: cell-based EC50 (IDUA activity/uptake with rhIDUA)
  EC50: 16 µM
[4]; Hurler-Scheie fibroblasts, 50 µM compound, 96h, vs. single agent
  IDUA cell uptake on co-administration: marked increase of IDUA cell uptake
[4]; fibroblasts
  effect versus incubation time: increases at longer incubation times

Reference: patent publication US20230140216A1, “COMBINATION THERAPY FOR TREATING MPS1” (GAIN THERAPEUTICS SA, priority 2020, published 2023)
